Holding throughout (assay): in vitro antibacterial activity, minimal inhibitory concentration
Assay type in all cases: cell-based

In one test the test system is E. coli Brig. Particulars: Escherichia coli. From the text:
(§1) The compounds of the invention are new chemical compounds that are used as pharmacological agents and especially as broad spectrum antibacterial agents. They are active in vitro against strains of both gram-positive and gram-negative bacteria.
(§2) Minimal Inhibitory Concentration (μg/ml)

The next test deals with E. coli Vogel. Particulars: Escherichia coli.
From the text: as §1, §2

For the next test, the system named is Entero. cloacae. Particulars: Enterobacter cloacae.
From the text: as §1, §2

A further test has as its system Klebs. pneu.
From the text: as §1, §2

For a further test, the system named is Prot. vulg.
From the text: as §1, §2

The next test relates to Pseudomonas #28. Particulars: Pseudomonas #28, in vitro; read-out: Minimal Inhibitory Concentration.
From the text: as §1, §2

The next test relates to Pseudomonas BRK 12-4-4. The settings on record: BRK1244; Pseudomonas BRK 12-4-4, in vitro.
From the text: as §1, §2

The next test concerns Pseudomonas UI 18. The settings on record: UI18; Pseudomonas UI 18, in vitro.
From the text: as §1, §2

A further test concerns Serr. marces.
From the text: as §1, §2

For a further test, the system named is Staph. aureus S18733. The settings on record: Staphylococcus aureus.
From the text: as §1, §2

In a further test the test system is Staph. aureus UC-76. The settings on record: Staphylococcus aureus, UC76; Staph. aureus UC-76, in vitro.
From the text: as §1, §2

For the next test, the system named is Strep. fec.
From the text: as §1, §2

Each structure is given as a SMILES string. In brackets after ≈: the same amount, converted by molar mass.

As for `C[C@@H](N)C(=O)Nc1ccc(-c2ncc(C(=O)N[C@@H](C(=O)NC3C(=O)N4C(C(=O)O)=C(CSc5nnnn5CC(=O)O)CSC34)c3ccccc3)c(O)n2)cc1` (stereo partly drawn) [Example 38, N-[2-[4-(D-Alanylamino)phenyl]-4-hydroxy-5-pyrimidinylcarbonyl]-7-[D-2-amino-2-phenylacetamido]-3-[[(1-carboxymethyl-1H-tetrazol-5-yl)thio]-methyl]-3-cephem-4-carboxylic acid], the MIC against E. coli Brig worked out at 6.3 µg/mL (≈ 7.98 µM); in the test with E. coli Vogel, 0.8 µg/mL (≈ 1.01 µM); against Entero. cloacae, 6.3 µg/mL (≈ 7.98 µM); in the test on Klebs. pneu., 6.3 µg/mL (≈ 7.98 µM); against Prot. vulg., 0.8 µg/mL (≈ 1.01 µM); in the test with Pseudomonas #28, 3.1 µg/mL (≈ 3.92 µM). For the same compound, the MIC in the test with Pseudomonas BRK 12-4-4 is 3.1 µg/mL (≈ 3.92 µM); against Pseudomonas UI 18, 3.1 µg/mL (≈ 3.92 µM); in the test on Serr. marces., 25 µg/mL (≈ 31.7 µM); in the test with Staph. aureus S18733, 12.5 µg/mL (≈ 15.8 µM); with Staph. aureus UC-76, 6.3 µg/mL (≈ 7.98 µM); against Strep. fec., more than 50 µg/mL.

For the compound `CC(=O)OCC1=C(C(=O)O)N2C(=O)[C@@H](NC(=O)[C@H](NC(=O)c3cnc(-c4ccc(NC(=O)[C@@H](C)N)cc4)nc3O)c3ccccc3)[C@H]2SC1` [Example 18, N-[2-[4-(D-Alanylamino)phenyl]-4-hydroxy-5-pyrimidinylcarbonyl]-7-[D-2-amino-2-phenylacetamido]-3-acetoxymethyl-3cephem-4-carboxylic acid], the MIC was found to be 50 µg/mL (≈ 72.5 µM) against E. coli Brig; 12.5 µg/mL (≈ 18.1 µM) against E. coli Vogel; 50 µg/mL (≈ 72.5 µM) in the test on Entero. cloacae; 25 µg/mL (≈ 36.2 µM) in the test on Klebs. pneu.; 25 µg/mL (≈ 36.2 µM) in the test on Prot. vulg.; 3.1 µg/mL (≈ 4.49 µM) in the test on Pseudomonas #28. Also, the MIC with Pseudomonas BRK 12-4-4 was 6.3 µg/mL (≈ 9.13 µM); against Pseudomonas UI 18, 1.6 µg/mL (≈ 2.32 µM); against Serr. marces., more than 50 µg/mL; with Staph. aureus S18733 it was 6.3 µg/mL (≈ 9.13 µM); in the test with Staph. aureus UC-76 it was 1.6 µg/mL (≈ 2.32 µM); with Strep. fec., 25 µg/mL (≈ 36.2 µM).

Take `CC(=O)NC(CC(C)C)C(=O)Nc1ccc(-c2ncc(C(=O)N[C@@H](C(=O)N[C@@H]3C(=O)N4C(C(=O)O)=C(COC(C)=O)CS[C@H]34)c3ccccc3)c(O)n2)cc1` (mixture of isomers) [Example 4, N-[2-[4-(N-Acetyl-DL-leucylamino)phenyl]-4-hydroxy-5-pyrimidinylcarbonyl]-7-[D-2-amino-2-phenylacetamido]-3-acetoxymethyl-3-cephem-4-carboxylic acid]: the MIC with E. coli Brig worked out at 25 µg/mL; in the test with E. coli Vogel, 6.3 µg/mL; with Entero. cloacae, 25 µg/mL; against Klebs. pneu., 25 µg/mL; in the test on Prot. vulg., 25 µg/mL; in the test on Pseudomonas #28 it was 12.5 µg/mL. Further, the MIC with Pseudomonas BRK 12-4-4 is 12.5 µg/mL; in the test with Pseudomonas UI 18, 12.5 µg/mL; against Serr. marces. it was more than 50 µg/mL; in the test with Staph. aureus S18733, 6.3 µg/mL; with Staph. aureus UC-76 it was 1.6 µg/mL; against Strep. fec., 50 µg/mL.

Turning to `CC(=O)N[C@@H](C(=O)Nc1ccc(-c2ncc(C(=O)N[C@@H](C(=O)N[C@@H]3C(=O)N4C(C(=O)O)=C(COC(C)=O)CS[C@H]34)c3ccccc3)c(O)n2)cc1)C(C)C` [Example 17, N-[2-[4-(N-Acetyl-D-valylamino)phenyl]-4-hydroxy-5-pyrimidinylcarbonyl]-7-[D-2-amino-2-phenylacetamido]-3-acetoxymethyl-3-cephem-4-carboxylic acid], the MIC against E. coli Brig is 12.5 µg/mL (≈ 16.5 µM); in the test on E. coli Vogel it was 6.3 µg/mL (≈ 8.29 µM); with Entero. cloacae, 25 µg/mL (≈ 32.9 µM); with Klebs. pneu. it was 12.5 µg/mL (≈ 16.5 µM); against Prot. vulg., 25 µg/mL (≈ 32.9 µM); in the test with Pseudomonas #28 it was 6.3 µg/mL (≈ 8.29 µM). The MIC was 12.5 µg/mL (≈ 16.5 µM) against Pseudomonas BRK 12-4-4; 6.3 µg/mL (≈ 8.29 µM) in the test on Pseudomonas UI 18; more than 50 µg/mL in the test with Serr. marces.; 6.3 µg/mL (≈ 8.29 µM) in the test on Staph. aureus S18733; 1.6 µg/mL (≈ 2.11 µM) with Staph. aureus UC-76; 50 µg/mL (≈ 65.8 µM) with Strep. fec..

The values are drawn from US4311699A, “Aminoacid derivatives of cephalosporin compounds” (priority 1980, dated 1982).
